Assay results reported in the NIST ThermoML archive (doi:10.1007/s10765-005-8096-3).

Test: refractive index (Na D-line) (dimensionless); xn = mol fraction of the nth substance listed
Settings: 101 kPa, Liquid, Standard Abbe refractometry

CC(C)c1ccccc1 [isopropylbenzene] + CCCCOC(C)=O
refractive index
Settings | 293.15 K | 298.15 K | 303.15 K | 308.15 K | 313.15 K
x2 = 0.0521 | 1.48648 | 1.48385 | 1.48124 | 1.47872 | 1.47599
x2 = 0.0998 | 1.48203 | 1.47941 | 1.47677 | 1.47424 | 1.47156
x2 = 0.151 | 1.47724 | 1.47459 | 1.47198 | 1.46948 | 1.4668
x2 = 0.2043 | 1.47219 | 1.46954 | 1.46694 | 1.46442 | 1.46178
x2 = 0.2496 | 1.4679 | 1.46525 | 1.46266 | 1.46014 | 1.45753
x2 = 0.3036 | 1.46273 | 1.46014 | 1.45758 | 1.45505 | 1.45243
x2 = 0.3578 | 1.45755 | 1.45496 | 1.45242 | 1.44988 | 1.44725
x2 = 0.4021 | 1.45329 | 1.45068 | 1.44815 | 1.44562 | 1.44301
x2 = 0.4514 | 1.4485 | 1.44593 | 1.44338 | 1.44086 | 1.43827
x2 = 0.4994 | 1.44384 | 1.44127 | 1.43873 | 1.43623 | 1.43363
x2 = 0.555 | 1.43843 | 1.43587 | 1.43334 | 1.43083 | 1.42824
x2 = 0.6017 | 1.43384 | 1.4313 | 1.42878 | 1.42629 | 1.42372
x2 = 0.65 | 1.42906 | 1.42655 | 1.42403 | 1.42154 | 1.41898
x2 = 0.6996 | 1.42417 | 1.42165 | 1.41914 | 1.41673 | 1.41413
x2 = 0.7493 | 1.41919 | 1.4167 | 1.41421 | 1.41175 | 1.40924
x2 = 0.8007 | 1.4141 | 1.41161 | 1.40915 | 1.40668 | 1.40412
x2 = 0.8497 | 1.4092 | 1.40674 | 1.40425 | 1.4018 | 1.39927
x2 = 0.8992 | 1.40425 | 1.4018 | 1.39931 | 1.39691 | 1.39437
x2 = 0.95 | 1.39913 | 1.39675 | 1.39426 | 1.39185 | 1.3894
